# Results taken from patent publication US12171758B1, “Crystalline salt forms of kappa opioid receptor antagonist and products and methods related thereto” (Neumora Therapeutics, Inc., priority 2023, dated 2024).
# Values joined by “and” are separate entries in the source; they are usually repeats but may differ in a detail not shown here. Equal values may be shown once.
# Legend:
# Format in all cases: physicochemical
# [1] = pKa measurement (Sirius T3, Yasuda-Shedlovsky extrapolation); conditions: Sirius T3, MeOH and KCl solution, pH 2 to 12, Yasuda-Shedlovsky extrapolation
# Source text: pKa Measurements pKa measurements were taken using a Sirius T3 instrument in a solvent (MeOH and KCl solution). The process ran from low to high pH (2 to 12). MEC Measurements
# [2] = Molar extinction coefficient (MEC) to evaluate photo reactivity; conditions: for MEC Ave.: average of duplicate
# Experimental: The actual weight was recorded. The solid was dissolved and diluted to volume with ACN:H2O (1:1, v/v). Stock solutions were prepared in duplicate. The stock solutions were diluted by 50 times by transferring 1 mL of stock solution into 50-mL volumetric flask and then diluted to volume with ACN/water ACN:H2O (1:1, v/v). The 1/50 solutions were used to collect spectra with full wave scanning from 190 nm to 700 nm and absorbance at 235 nm, 270 nm, 290 nm and 365 nm using spectrophotometer with the background subtracted. MEC was then calculated by the following equation: MEC(L mol−1 cm−1)=Absorbance/conc.(mol/L)/Cell length(cm) Log D7.6 Measurements Preparation of Solvents • 0.1 M KH2PO4: 1.36 g of solid KH2PO4 was added into a 100-mL volumetric flask, the solid was dissolved with ultrapure water and diluted to volume. • 0.1 M K2HPO4: 1.73 g of solid K2HPO4 was added into a 100-mL volumetric flask, the solid was dissolved with ultrapure water and diluted to volume. • 100 mL of 0.1 M K2HPO4 solution and 30 mL of 0.1 M KH2PO4 was transferred to a 250-mL beaker and mixed. Then, pH was adjusted 7.4 with the KH2PO4 solution. • Octanol and aqueous buffer were pre-equilibrated by adding 10 mL octanol and 10 mL aqueous buffer into a 20-mL glass vial and agitating the vial for 24 hrs. The mutually saturated octanol and aqueous buffer were then separated after phase separation. Sample Set up • Approximately 1.0 mg solids were weighted into a 3-mL glass vial with 1.0 mL of octanol inside, and dissolution was accelerated by ultrasonication. Then, 1.0 mL of complementary aqueous buffer was added into the vial. Samples were prepared in triplicate. The glass vial was sealed and mixed on a rotary mixer at 25° C. for 24 hrs. Sample Analysis and Data Calculation • After phase separated, the phases were physically separated, and the concentrations of compounds in each phase were determined by HPLC using the HPLC conditions and parameters in Table 5. • Distribution coefficient, referred to as Dow, was calculated as the concentration of the test compound (both ionized and unionized) in the octanol phase divided by the corresponding concentration in the aqueous phase. Log D7.6 was calculated as an average of the log 10 of Dow based on three runs. Solubility/Stability Measurements in pH Buffers Stock Solution Preparation • 0.2 M Hydrochloric Acid: 166 μL of 12 M hydrochloric acid is added into a 10-mL volumetric flask, and the resulting mixture was diluted to volume with purified water and mixed. • 0.2 M Sodium Hydroxide: 80.0 mg of sodium hydroxide was weighted into a 10-mL volumetric flask. The solid was dissolved with volume of purified water, diluted to volume and mixed. • 0.2 M Potassium Chloride: 148.8 mg of potassium chloride was weighted into a 10-mL volumetric flask. The solid was dissolved with volume of purified water, diluted to volume and mixed. • 0.2 M Potassium Phosphate, Monobasic: 271.5 mg of monobasic potassium phosphate (KH2PO4) was weighed into a 10-mL volumetric flask. The solid was dissolved with appropriate volume of purified water, diluted to volume and mixed. • 0.2 M Boric Acid and Potassium Chloride: 124.3 mg of boric acid (H3BO3) and 149.5 mg of potassium chloride (KCl) were mixed into a 10-mL volumetric flask. The solid was dissolved with appropriate volume of purified water, diluted to volume and mixed. pH Buffers Preparation • 50 mM KCl pH 2.0 buffer: 2.5 mL of 0.2 M potassium chloride solution and 0.65 mL of 0.2 M hydrochloric acid solution were transferred to a 10-mL volumetric flask. Purified water is added to the target volume, and pH is adjusted to 2.0. The mixture was then diluted to volume with purified water, mixed, and pH was measured with a pH meter. • 50 mM citrate pH 4.0 buffer: 65.3 mg of citric acid (monohydrate) and 56.9 mg of sodium citrate (dihydrate) were transferred to a 10-mL volumetric flask, purified water was added to obtain the target volume, and pH was adjust to 4.0. […]
# [3] = Log D7.6 shake-flask (octanol/phosphate buffer) and Log P calculation; conditions: pH 7.6
# Experimental: The actual weight was recorded. The solid was dissolved and diluted to volume with ACN:H2O (1:1, v/v). Stock solutions were prepared in duplicate. The stock solutions were diluted by 50 times by transferring 1 mL of stock solution into 50-mL volumetric flask and then diluted to volume with ACN/water ACN:H2O (1:1, v/v). The 1/50 solutions were used to collect spectra with full wave scanning from 190 nm to 700 nm and absorbance at 235 nm, 270 nm, 290 nm and 365 nm using spectrophotometer with the background subtracted. MEC was then calculated by the following equation: MEC(L mol−1 cm−1)=Absorbance/conc.(mol/L)/Cell length(cm) Log D7.6 Measurements Preparation of Solvents • 0.1 M KH2PO4: 1.36 g of solid KH2PO4 was added into a 100-mL volumetric flask, the solid was dissolved with ultrapure water and diluted to volume. • 0.1 M K2HPO4: 1.73 g of solid K2HPO4 was added into a 100-mL volumetric flask, the solid was dissolved with ultrapure water and diluted to volume. • 100 mL of 0.1 M K2HPO4 solution and 30 mL of 0.1 M KH2PO4 was transferred to a 250-mL beaker and mixed. […] Sample Analysis and Data Calculation • After phase separated, the phases were physically separated, and the concentrations of compounds in each phase were determined by HPLC using the HPLC conditions and parameters in Table 5. • Distribution coefficient, referred to as Dow, was calculated as the concentration of the test compound (both ionized and unionized) in the octanol phase divided by the corresponding concentration in the aqueous phase. Log D7.6 was calculated as an average of the log 10 of Dow based on three runs. […] The mixture was then diluted to volume with purified water, mixed, and pH was measured with a pH meter. • 50 mM citrate pH 4.0 buffer: 65.3 mg of citric acid (monohydrate) and 56.9 mg of sodium citrate (dihydrate) were transferred to a 10-mL volumetric flask, purified water was added to obtain the target volume, and pH was adjust to 4.0. […]
# [4] = Solubility measurement in organic solvents at 25° C. for 24 hours; conditions: for solubility at 24 h: organic solvent or mixture, thermodynamic from solid; for Final form of residual solids: XRPD
compound,measurement,setting,value
"CCc1cc(F)c2nc(N3CCC(NC4CCOCC4)CC3)c(-c3nc(C)no3)c(C)c2c1.Cl [HCl salt Type A, 1-(6-ethyl-8-fluoro-4-methyl-3-(3-methyl-1,2,4-oxadiazol-5-yl)quinolin-2-yl)-N-(tetrahydro-2H-pyran-4-yl)piperidin-4-amine hydrochloride]",pKa,[1],8.68
same,MEC Ave.,[2]; 235 nm,26184.9 L/mol/cm
same,MEC,"[2]; 235 nm, single solution, ACN:H2O (1:1, v/v), hydrochloride",26246.5 L/mol/cm and 26123.4 L/mol/cm
same,MEC Ave.,[2]; 270 nm,29997.1 L/mol/cm
same,MEC,"[2]; 270 nm, single solution, ACN:H2O (1:1, v/v), hydrochloride",30005.4 L/mol/cm and 29988.9 L/mol/cm
same,MEC Ave.,[2]; 290 nm,13591.0 L/mol/cm
same,MEC,"[2]; 290 nm, single solution, ACN:H2O (1:1, v/v), hydrochloride",13615.7 L/mol/cm and 13566.4 L/mol/cm
same,MEC Ave.,[2]; 365 nm,2162.6 L/mol/cm
same,MEC,"[2]; 365 nm, single solution, ACN:H2O (1:1, v/v), hydrochloride",2207.7 L/mol/cm and 2117.4 L/mol/cm
same,MEC,[2]; at all selected wavelength,> 1000 L/mol/cm
same,Average of Log D7.6,[3]; 24 h,2.87
same,logP,[3]; calculated: Log D7.6 + lg[1+10^(pKa-pH)],4
same,logD,[3],2.87
same,solubility at 24 h,"[4]; 25 °C, nonpolar solvents (hexane, heptane and toluene)",< 88 µg/mL
same,solubility at 24 h,"[4]; 25 °C, polar solvents (DMSO and MeOH)",> 24900 µg/mL
same,Final form of residual solids,"[4]; Acetone, 24 hrs",HCl salt Type A
same,Final form of residual solids,"[4]; DMSO, 24 hrs, hydrochloride",Amorphous form
same,Final form of residual solids,"[4]; DMSO, 24 hrs, listed as HCl Salt Type A, hydrochloride",Amorphons
same,Final form of residual solids,"[4]; EtOAc (printed EtQAc), 24 hrs",HCl salt Type A
same,Final form of residual solids,"[4]; EtOH, 24 hrs",HCl salt Type A
same,Final form of residual solids,"[4]; Heptane, 24 hrs",HCl salt Type A
same,Final form of residual solids,"[4]; Hexane, 24 hrs",HCl salt Type A
same,Final form of residual solids,"[4]; IPA, 24 hrs",HCl salt Type A
same,Final form of residual solids,"[4]; MeOH, 24 hrs",HCl salt Type A
same,Final form of residual solids,"[4]; Toluene, 24 hrs",HCl salt Type A
same,solubility at 24 h,"[4]; ethanol, EtOH, 25° C., 24 hrs",3500 µg/mL
same,solubility at 24 h,"[4]; methanol, MeOH, 25° C., 24 hrs",24900 µg/mL
same,solubility at 24 h,"[4]; Acetone, 25° C., 24 hrs",91 µg/mL
same,solubility at 24 h,"[4]; DMSO, 25° C., 24 hrs",33500 µg/mL
same,solubility at 24 h,"[4]; EtOAc (printed EtQAc), 25° C., 24 hrs",11 µg/mL
same,solubility at 24 h,"[4]; Heptane, 25° C., 24 hrs",0.8 µg/mL
same,solubility at 24 h,"[4]; Hexane, 25° C., 24 hrs",0.4 µg/mL
same,solubility at 24 h,"[4]; Toluene, 25° C., 24 hrs",8.8 µg/mL
same,form change,[4]; organic solvents other than DMSO,No form change
